Legend:
[1] = system: nasal epithelium; assay: Mucus host-defence responses during nasal perfusion; assay type: in vivo, human
Source text: Perfusion of the nasal epithelium with low chloride Ringer/HEPES buffer imposes a chemical gradient for chloride secretion, and therefore also provides a drive for fluid secretion.
Mucus host-defence episodes were scored 1 to 3 on the basis of the number of features and the magnitude of the responses observed. FIG. 10 reports the score of the episodes recorded, and indicates the time of their occurrence in the perfusion protocol.

[2] = system: prostasin; conditions: treatment for 24 h; cited from earlier work
[3] = system: cortical collecting duct of the rabbit kidney; conditions: Muto et al. 1993, cited from earlier work
[4] = system: prostasin; conditions: rats infused i.v. for 24h; cited from earlier work
[5] = system: cystic fibrosis transmembrane regulator (CFTR); assay: Short circuit current recording of HBE cells in Ussing chambers (forskolin ΔIsc); assay type: cell-based, human; conditions: for effect on forskolin ΔIsc compared to control: 90 min pre-treatment
Procedure: Differentiated HBE cells grown to confluence at an air-liquid interface for 15 to 29 days were used to study substances for ability to achieve long duration down regulation of the epithelial amiloride-sensitive sodium channel (ENaC).
Step 1: Treatment with substance. For each group of cells treated with a substance, 30 μl of 100 times final concentration of substance was added to the 3 ml basolateral culture medium, mixed and 150 μl of the resultant basolateral fluid was transferred to the apical surface for 5 min. For non-treatment control groups of basolateral fluid with no added substance was transferred to the apical surface. After 5 min. equilibration the excess apical fluid was then transferred back to the basolateral side of the culture well.
Step 2: Variable period of incubation with the substance. Dependent on the individual experiment the cells were returned to the 37° C. incubator for periods of 0 min. to 120 min.
Step 3: Period of substance washout with fresh culture medium. For experiments to study the duration of a substance response the HBE cells on Snapwell inserts were washed with fresh culture medium (no added substance) at 37° C. and placed in fresh 6-well plates containing 3 ml fresh culture medium (no added substance) on the basolateral side. […]
Step 5: Short circuit current (Isc) measurement. […] Silver/silver chloride electrodes (Costar Ltd., UK) were used to monitor Isc, which was recorded continuously throughout each experiment using AcqKnowledge III for MP100WSW data acquisition software (Biopac, Linton Instruments, UK). Transepithelial resistance (RT) was determined every minute by delivering a 5 mV pulse for 3 seconds and recording the change in ISS, over the 3 second period (ΔIsc). RT was calculated using the Ohm's law relationship RT=[V(5 mV)/ΔIsc].
At 37 min. […] The magnitude of the CFTR Isc response to forskolin was determined for each culture by measuring the difference between Isc immediately prior to addition of forskolin and at plateau at approximately 6 min. following addition of the agent (Forskolin ΔIsc)

Question: Which results are given for `N=C(N)c1ccc2cc(OC(=O)c3ccc(N=C(N)N)cc3)ccc2c1` [6-amidino-2-napthyl 4-guanidinobenzoate]?
Answer: scores for episodes of mucus host-defence response (scored 1 to 3) ([1]; perfusion of 3.10^−6 M in low chloride Ringer/HEPES buffer): Highest scores; mucus host-defence responses ([1]; perfusion with 3.10^−6 M in low chloride Ringer/HEPES buffer): stimulated episodes of mucus host-defence responses; prostasin secretion into culture medium [2]: reduced prostasin secretion; effect on the rabbit kidney model ([3]; 10^−5 M): without effect; change in transepithelial voltage, as share of that achievable by 5.10^−6 M amiloride ([3]; perfused at 10^−4 M): 40%; onset of change in transepithelial voltage ([3]; perfusion of 10^−4 M): ≤ 30 s; levels of prostasin secreted in the urine [4]: reduced levels of prostasin; effect on forskolin ΔIsc compared to control ([5]; 1 μM): no significant effect; forskolin response, treatment vs control ([5]; 1 μM, pre-treatment time range 5 min to 60 min): No significant difference; effect on forskolin ΔIsc compared to control ([5]; dose range 30 nM to 3 μM): without effect

— patent US20100092402A1, “TREATMENT OF RESPIRATORY DISEASE” (Mucokinetica Ltd., priority 2007, published 2010)
